Experimental data taken from patent US20180086744A1, “COMBINATION TREATMENT OF CANCER COMPRISING EGFR/HER2 INHIBITORS” (Boehringer Ingelheim International GmbH, priority 2005, published 2018).

Legend:
[1] = tested on: cell lines expressing double mutant EGF receptors; conditions: cited from earlier work
[2] = tested on: double mutant EGF receptors; conditions: cell lines expressing double mutant EGF receptors; cited from earlier work
SKOV-3 cells = assay: anchorage independent SKOV-3 cell assay (soft agar); type: cell-based, human
Experimental: SKOV-3 cells are grown on a soft agar layer in the presence of 2 nM BIBW2992BS or three concentrations of 5FU (200 nM, 400 nM, 800 nM) or in combination of both.

## CC#CC(=O)Nc1ccc2ncnc(Nc3cccc(Br)c3)c2c1 [CL 387,785]
[1]
  inhibition of proliferation: able to inhibit
[2]
  inhibition of EGF-induced EGFR phosphorylation: able to inhibit

## CN(C)C/C=C/C(=O)Nc1cc2c(Nc3ccc(F)c(Cl)c3)ncnc2cc1O[C@H]1CCOC1 [BIBW2992, 4-[(3-chloro-4-fluorophenyl)amino]-6-{[4-(N,N-dimethylamino)-1-oxo-2-buten-1-yl]amino}-7-((S)-tetrahydrofuran-3-yloxy)-quinazoline]
SKOV-3 cells; Homo sapiens, SK-OV-3, 2 nM, read-out: inhibition of cell growth
  inhibition at 0.002 µM: 20%

## O=c1[nH]cc(F)c(=O)[nH]1 [5FU, 5-fluorouracile]
SKOV-3 cells; 200 nM
  inhibition of cell growth: No inhibition
SKOV-3 cells; 400 nM
  inhibition of cell growth: No inhibition
SKOV-3 cells; Homo sapiens, SK-OV-3, 800 nM, read-out: inhibition of cell growth
  inhibition at 0.8 µM: 13%
